From patent publication US10730849B2, “Benzo[b]thiophene compounds as STING agonists” (MERCK SHARP & DOHME CORP., priority 2016, dated 2020)

Columns and labels:
full-length HAQ STING = full-length HAQ STING (Homo sapiens (Human), UniProt Q86WV6, G230A/H232R/R293Q/R71H); experiment: 3H-cGAMP filtration binding assay (HAQ STING); details: competition with tritiated cGAMP, HAQ STING membrane
Description: The ability of compounds to bind STING is quantified by the ability to compete with tritiated cGAMP ligand for human STING receptor membrane using a radioactive filter-binding assay. The binding assay employs STING receptor obtained from Hi-Five cell membranes overexpressing full-length HAQ STING prepared in-house and tritiated cGAMP ligand also purified in-house.
(§1) The ability of compounds to bind STING is quantified by their ability to compete with tritiated cGAMP ligand for human STING receptor membrane using a radioactive filter-binding assay. The binding assay employs STING receptor obtained from Trichoplusia ni cell membranes (T. ni; Expression Systems, cat #94-002F, www.exressionsystems.com) overexpressing full-length HAQ STING and tritiated cGAMP ligand.
The basic HAQ STING filtration assay protocol is as follows:
Compound and membrane then preincubated for 60 min at RT to allow compound binding to equilibrate. Following equilibration, 8 nM of [^3H]c-GAMP ligand was prepared by diluting into assay buffer, and 50 uL of this working stock was then manually added to each well of the assay plate. […] The filter plates were then dried at 55° C. for 30 min using a pressurized oven before 30 uL of ULTIMA GOLD F scintillate was added to each well. Tritium levels for each reaction well were then measured using a PerkinElmer TopCount plate reader.
(§2) After normalization to controls, the percent activity for each compound concentration was calculated by measuring the amount of remaining radioactivity. The plot of percent activity versus the log of compound concentration was fit with a 4-parameter dose response equation to calculate EC50 values.

THP1 cells = experiment: IFN-β secretion in THP1 cell culture (5 h); assay type: cell-based, human; details: relative to 30 uM cGAMP
Protocol: The ability of compounds to stimulate the secretion of interferon-beta from THP1 cells was measured using a human IFN-3 AlphaLISA kit (Perkin Elmer, Cat. No. AL265F). The basic protocol is as follows:
The cell viability and count was ascertained using a Beckman Coulter V-Cell XR cell counter. The cells suspension was centrifuged at 200×g for 5 min at RT. Cells were resuspended to a density of 0.8×10^6/mL in 37° C. assay medium. Subsequent liquid transfers were performed using either a Matrix electronic multichannel pipette or an Agilent Bravo Automated Liquid Handling Platform.
The assay was started by dispensing 40 μL of the previously prepared cell suspension into the wells of the plate containing compounds. After 5 h incubation at 37° C., 5% CO2 in a humidified atmosphere, the plate of cells and compounds was centrifuged at 200×g for 5 min at RT. […] To these supernatant-containing wells was added 10 μL of 5× Anti-Analyte Acceptor beads ([…] of AlphaLISA HiBlock Buffer) and incubated for 30 min at RT while shaking on an orbital plate shaker. To each well was added 10 μL of 5× Biotinylated Antibody Anti-analyte (5 nM in AlphaLISA HiBlock Buffer) and incubated on an orbital plate shaker for 60 min at RT or overnight at 4° C. To each well was added 25 μL of 2× SA-Donor beads ([…] in AlphaLISA HiBlock Buffer) and incubated for 30-45 min at RT in the dark while shaking on an orbital plate shaker. The plate was then read on a Perkin Elmer Envision (λex=680 nm, […]). The percent effect of the AlphaLISA signal at each compound concentration was calculated based on 30 uM cGAMP positive controls and 0.3% DMSO negative controls. The plot of percent effect versus the log of compound concentration was fit with a 4-parameter concentration response equation to calculate EC50 values.
Compounds of the disclosure were evaluated for IFN-3 secretion in THP1 cell culture as described above.

full-length WT STING = full-length WT STING (Homo sapiens (Human), UniProt Q86WV6, H232R); experiment: 3H-cGAMP filtration binding assay (WT STING); details: for EC50: competition with tritiated cGAMP, WT STING membrane; for inhibition at 20 µM: WT STING, compound at 20 uM
Description: as §1, with “www.expressionsystems.com)” for “www.exressionsystems.com)”, “WT” for “HAQ”
The basic WT STING filtration assay protocol is as follows:
The filter plates were then dried at 55° C. for 30 min using a pressurized VWR oven before 30 uL of ULTIMA GOLD F scintillate was added to each well. Tritium levels for each reaction well were then measured using a PerkinElmer TopCount plate reader.
as §2

full-length HAQ STING, sequence (Q86WV6 other isoform, or with tags, fused parts or gaps, stated change not applied): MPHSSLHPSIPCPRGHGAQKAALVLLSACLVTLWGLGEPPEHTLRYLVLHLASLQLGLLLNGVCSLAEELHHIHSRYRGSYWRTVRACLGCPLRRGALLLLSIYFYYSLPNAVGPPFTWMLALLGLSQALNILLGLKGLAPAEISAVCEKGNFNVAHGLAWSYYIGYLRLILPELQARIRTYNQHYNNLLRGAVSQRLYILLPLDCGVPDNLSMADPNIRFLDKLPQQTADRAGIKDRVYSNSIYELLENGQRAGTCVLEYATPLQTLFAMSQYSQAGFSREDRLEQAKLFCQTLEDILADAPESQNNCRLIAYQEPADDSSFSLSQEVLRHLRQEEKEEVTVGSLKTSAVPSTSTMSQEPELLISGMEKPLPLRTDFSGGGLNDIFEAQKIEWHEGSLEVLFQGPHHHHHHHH
full-length WT STING, sequence (Q86WV6 other isoform, or with tags, fused parts or gaps H232R (already in the parent)): as the sequence (Q86WV6 other isoform, or with tags, fused parts or gaps, stated change not applied) above, with H71R, A230G, Q293R counted along it

SMILES	EC50 (full-length HAQ STING) [nM]	% Effect at 30 μM relative to 2’3’-cGAMP (THP1 cells) [%]	EC50 (full-length WT STING) [nM]	inhibition at 20 µM (full-length WT STING) [%]
COc1cc2sc(C(=O)[C@@H]3C[C@@H]3C(=O)O)cc2cc1Br (single isomer, unassigned) [Example 5, 2-(5-bromo-6-methoxybenzo[b]thiophene-2-carbonyl)cyclopropane-1-carboxylic acid]	1140	77	–	–
COc1cc2sc(C(=O)[C@H]3C[C@H]3C(=O)O)cc2cc1Br (single isomer, unassigned) [Example 6, 2-(5-bromo-6-methoxybenzo[b]thiophene-2-carbonyl)cyclopropane-1-carboxylic acid]	703	130	–	–
CCC(CC(=O)c1cc2cc(OC)c(OC)cc2s1)C(=O)O (centres unmarked) [Example 1, 4-(5,6-dimethoxybenzo[b]thiophen-2-yl)-2-ethyl-4-oxobutanoic acid]	3400	144	5170	–
COc1cc2cc(C(=O)CC(C(=O)O)C(C)C)sc2cc1OC (centres unmarked) [Example 2, 4-(5,6-Dimethoxybenzo[b]thiophen-2-yl)-2-isopropyl-4-oxobutanoic acid]	9590	149	11200	–
COc1cc2cc(C(=O)CC(C(=O)O)C3CC3)sc2cc1OC (centres unmarked) [Example 3, 2-Cyclopropyl-4-(5,6-dimethoxybenzo[b]thiophen-2-yl)-4-oxobutanoic acid]	10600	59	–	41
COc1cc2cc(C(=O)C3CC3C(=O)O)sc2cc1OC (centres unmarked) [Example 4, 2-(5,6-Dimethoxybenzo[b]thiophene-2-carbonyl)cyclopropane carboxylic acid]	1900	34	1140	–
COc1cc2sc(C(=O)CCC(=O)O)cc2cc1Cl [Example 7, 4-(5-Chloro-6-methoxybenzo[b]thiophen-2-yl)-4-oxobutanoic acid]	9340	290	–	20
C=Cc1cc2sc(C(=O)CCC(=O)O)cc2cc1OC [Example 8, 4-(5-Methoxy-6-vinylbenzo[b]thiophen-2-yl)-4-oxobutanoic acid]	6770	260	15500	–
COc1cc2cc(C(=O)CCC(=O)O)sc2cc1Br [Example 9, 4-(6-Bromo-5-methoxybenzo[b]thiophen-2-yl)-4-oxobutanoic acid]	2580	298	10900	–
CNc1cc2cc(C(=O)CCC(=O)O)sc2cc1OC [Example 10, 4-(6-Methoxy-5-(methylamino)benzo[b]thiophen-2-yl)-4-oxobutanoic acid]	14000	182	–	31
COc1cc2cc(C(=O)C[C@H](C)C(=O)O)sc2cc1OC [Example 11, (S)-4-(5,6-Dimethoxybenzo[b]thiophen-2-yl)-2-methyl-4-oxobutanoic acid]	2740	132	3870	–
COc1cc2cc(C(=O)CCC(=O)OC(C)(C)C)sc2cc1OC [Example 12, tert-butyl 4-(5,6-dimethoxybenzo[b]thiophen-2-yl)-4-oxobutanoate]	–	16	–	–
COc1cc2sc(C(=O)C[C@H](C)C(=O)O)cc2c(F)c1OC [Example 13, (S)-4-(4-fluoro-5,6-dimethoxybenzo[b]thiophen-2-yl)-2-methyl-4-oxobutanoic acid]	1380	228	2080	–
COc1cc2sc(C(=O)CCC(=O)O)cc2c(F)c1OC [Example 14, 4-(4-fluoro-5,6-dimethoxybenzo[b]thiophen-2-yl)-4-oxobutanoic acid]	–	394	–	–
COc1cc2cc(C(=O)C[C@H](C)C(=O)O)sc2cc1Br [Example 15, (S)-4-(6-bromo-5-methoxybenzo[b]thiophen-2-yl)-2-methyl-4-oxobutanoic acid]	894	115	894	–
COc1cc2cc(C(=O)CCC(=O)O)sc2cc1OC [Example 16, 4-(5,6-dimethoxybenzo[b]thiophen-2-yl)-4-oxobutanoic acid]	1720	129	2480	–
CNc1cc2sc(C(=O)C[C@H](C)C(=O)O)cc2cc1OC [Example 37, (S)-4-(5-methoxy-6-(methylamino)benzo[b]thiophen-2-yl)-2-methyl-4-oxobutanoic acid]	5610	42	–	–
COc1cc2cc(C(=O)C[C@H](C)C(=O)O)sc2cc1SC [Example 38, (S)-4-(5-methoxy-6-(methylthio)benzo[b]thiophen-2-yl)-2-methyl-4-oxobutanoic acid]	1930	154	–	–
C=Cc1cc2cc(C(=O)[C@@H]3C[C@@H]3C(=O)O)sc2cc1OC [Example 39, (1S,2R)-2-(6-methoxy-5-vinylbenzo[b]thiophene-2-carbonyl)cyclopropane-1-carboxylic acid]	1150	193	–	–
COc1cc2sc(C(=O)C3CC3C(=O)O)cc2cc1SC (centres unmarked) [Example 40, 2-(6-methoxy-5-(methylthio)benzo[b]thiophene-2-carbonyl)cyclopropane-1-carboxylic acid]	3940	93	–	–
COc1cc2cc(C(=O)C[C@H](C)C(=O)O[C@H]3CSSC[C@@H]3O)sc2cc1OC [Example 42, (S)-(4R,5R)-5-hydroxy-1,2-dithian-4-yl 4-(5,6-dimethoxybenzo[b]thiophen-2-yl)-2-methyl-4-oxobutanoate]	759	6	–	–
CCCc1cc2sc(C(=O)C[C@H](C)C(=O)O)cc2cc1OC [Example 44, (2S)-4-(5-methoxy-6-propyl-1-benzothiophen-2-yl)-2-methyl-4-oxobutanoic acid]	15700	20	–	–
COc1cc2cc(C(=O)CCC(=O)O)sc2cc1CCF [Example 45, 4-[6-(2-fluoroethyl)-5-methoxy-1-benzothiophen-2-yl]-4-oxobutanoic acid]	14700	104	–	–
CCCc1cc2cc(C(=O)C[C@H](C)C(=O)O)sc2cc1OC [Example 47, (2S)-4-(6-methoxy-5-propyl-1-benzothiophen-2-yl)-2-methyl-4-oxobutanoic acid]	5060	90	–	–
CCCC(CC(=O)c1cc2cc(OC)c(OC)cc2s1)C(=O)O (centres unmarked) [Example 49, 2-(2-(5,6-dimethoxybenzo[b]thiophen-2-yl)-2-oxoethyl)pentanoic acid]	2720	111	–	–
COc1cc2sc(C(=O)C[C@H](C)C(=O)O)cc2c2nc(C)oc12 [Example 54, (S)-4-(4-methoxy-2-methylthieno[2′,3′:5,6]benzo[1,2-d]oxazol-7-yl)-2-methyl-4-oxobutanoic acid]	531	66	–	–
